Data on seven molecules can be found in article PMC11676834, “Composition of Triterpene Glycosides of the Far Eastern Sea Cucumber Cucumaria conicospermium Levin et Stepanov; Structure Elucidation of Five Minor Conicospermiumosides A3-1, A3-2, A3-3, A7-1, and A7-2; Cytotoxicity of the Glycosides Against Human Breast Cancer Cell Lines; Structure–Activity …” (Marine Drugs, 2024).

Each structure is given as a SMILES string. Counter-ions that a name gives are not always drawn. Like-named read-outs stand apart in the source and are kept apart here. Some results are limits rather than exact numbers.

The test system of one data set is human erythrocytes. Kind of data set: Hemolytic activity. The class given is cell-based. The settings on record: Erythrocyte, 1 h at 37 °C, read-out: ED50, Erythrocytes (hemolytic activity). The protocol:
Human blood (B(III) Rh+) was used to obtain erythrocytes by centrifuging 450× g three times for 5 min with phosphate-buffered saline (PBS) (pH 7.4) at 4 °C on centrifuge LABOFUGE 400R (Heraeus, Hanau, Germany). Ice-cold PBS (pH 7.4) was used for resuspension of erythrocytes residue to a final optical density of 1.5 at 700 nm, which was kept on ice. Then, 10 µL of tested compound solution or control (okhotoside A1-1 (7)) were added to 90 µL of erythrocyte suspension in V-bottom 96-well plates and exposed for 1 h at 37 °C. Next, centrifugation at 900× g for 10 min on a laboratory centrifuge LMC-3000 (Biosan, Riga, Latvia), led to separation of layers, and 80 µL of supernatant was carefully decanted and transferred into new flat-plate for each. The values of erythrocyte lysis were measured on microplate photometer Multiskan FC (Thermo Fisher Scientific, Waltham, MA, USA) at λ = 570 nm as hemoglobin concentration in supernatant. The effective dose, causing lysis of 50% erythrocytes (ED50), was calculated with SigmaPlot 14.0 software. All the experiments were carried out in triple repetitions, p ≤ 0.05.

The next data set relates to MDA-MB-231 cells. As to the kind of experiment: cells. The class given is cell-based, human. The settings on record: MTT, 24 h, read-out: Cytotoxicity, IC50, MDA-MB-231. The source says: (§1) Human erythrocytes were purchased from the Station of Blood Transfusion, Vladivostok. Human mammary epithelial cell line MCF-10A CRL-10317, human breast cancer cell lines T-47D HTB-133, MCF-7 HTB-22, and MDA-MB-231 CRM-HTB-26 were received from ATCC (Manassas, VA, USA). Culturing conditions: medium of RPMI-1640 with 1% penicillin/streptomycin (Biolot, St. Petersburg, Russia) and 10% fetal bovine serum (FBS) (Biolot, St. Petersburg, Russia) for the T-47D cell line; Minimum Essential Medium (MEM) with 1% penicillin/streptomycin sulfate (Biolot, St. Petersburg, Russia) and FBS (Biolot, St. Petersburg, Russia) to a final concentration of 10% for MCF-7 and MDA-MB-231 cells; DMEM/F12 medium with 10% FBS, 20 ng/mL EGF, […] hydrocortisone, 100 ng/mL cholera toxin, 10 μg/mL insulin, and 1% penicillin/streptomycin (BioinnLabs, Rostov-on-Don, Russia) for MCF-10A cell line.
(§2) The concentrations of tested glycosides were 0.1–50 µM; positive controls were cisplatin and okhotoside A1-1 (7). […] Then, the solutions of tested compounds with medium were replaced by 100 µL of fresh medium, and 10 µL of 3-(4,5-dimethylthiazol-2-yl)-2,5-diphenyltetrazolium bromide (MTT) (PanReac, AppliChem, Darmstadt, Germany) stock solution (5 mg/mL) was added to each well and incubated for 4 h, followed by the addition of 100 µL of SDS-HCl solution (1 g SDS/10 mL d-H2O/17 µL 6 N HCl) and further incubated for 18 h. Multiskan FC microplate photometer (Thermo Fisher Scientific, Waltham, MA, USA) was used to measure the absorbance of the converted dye formazan at 570 nm. The concentration caused the 50% cell metabolic activity inhibition (IC50) expresses the cytotoxic activity of each glycoside. The experiments were conducted in triplicate, p ≤ 0.05.

The next data set in a line: in vitro. The class given is cell-based, human. To be noted: human, MTT, 24 h; read-out: Cytotoxicity, IC50, MCF-10A.
Source text: as §1, §2

A further data set has as its system T-47D cells. As to the kind of experiment: cells. The class given is cell-based, human. To be noted: MTT, 24 h, read-out: Cytotoxicity, IC50, T-47D.
Source text: as §1
(§3) The concentrations of tested glycosides were 0.1–50 µM; positive controls were cisplatin and okhotoside A1-1 (7). Methodology: to each well of 96-well plates, the cell suspension (180 µL) with solution (20 µL) of tested glycoside in a certain concentration was placed (MCF-10A, MCF-7, T-47D, and MDA-MB-231—7 × 10^3 cells per well) and incubated in the atmosphere with 5% CO2 at 37 °C for 24 h. Then, the solutions of tested compounds with medium were replaced by 100 µL of fresh medium, and 10 µL of 3-(4,5-dimethylthiazol-2-yl)-2,5-diphenyltetrazolium bromide (MTT) (PanReac, AppliChem, Darmstadt, Germany) stock solution (5 mg/mL) was added to each well and incubated for 4 h, followed by the addition of 100 µL of SDS-HCl solution (1 g SDS/10 mL d-H2O/17 µL 6 N HCl) and further incubated for 18 h. Multiskan FC microplate photometer (Thermo Fisher Scientific, Waltham, MA, USA) was used to measure the absorbance of the converted dye formazan at 570 nm. The concentration caused the 50% cell metabolic activity inhibition (IC50) expresses the cytotoxic activity of each glycoside. The experiments were conducted in triplicate, p ≤ 0.05.

Another data set concerns MCF-7 cells. As to the kind of experiment: cells. The settings on record: MTT, 24 h, read-out: Cytotoxicity, IC50, MCF-7. The class given is cell-based, human.
Source text: as §1, §3

A further data set relates to MCF-10A cells. As to the kind of experiment: in vitro. To be noted: MTT, 24 h; read-out: Cytotoxicity, IC50, MCF-10A. The class given is cell-based, human.
Source text: as §1, §2

By IC50 is commonly meant the concentration needed to halve the response being measured. As for `CO[C@@H]1[C@@H](O)[C@H](O[C@@H]2[C@@H](O)[C@H](O[C@H]3[C@H](O)[C@@H](O[C@@H]4OC[C@@H](O)[C@H](O)[C@H]4O)[C@H](O[C@H]4[C@H](O[C@H]5CC[C@]6(C)C7CC[C@]8(C)[C@@H]([C@@](C)(O)[C@@H](CC=C(C)C)OC(C)=O)CC[C@@]8(C)C7=CC[C@H]6C5(C)C)OC[C@@H](OS(=O)(=O)O)[C@@H]4O)O[C@@H]3C)O[C@H](COS(=O)(=O)O)[C@H]2O)O[C@H](CO)[C@H]1O` (stereo partly drawn) [Conicospermiumoside A3-2 (2), 3β-O-{3-O-methyl-β-D-glucopyranosyl-(1→3)-6-O-sodium sulfate-β-D-glucopyranosyl-(1→4)-[(1→2)-β-D-xylopyranosyl]-β-D-quinovopyranosyl-(1→2)-4-O-sodium sulfate-β-D-xylopyranosyl}-20R-hydroxy,22R-acetoxylanosta-7,24-diene], the HC50 in the data set with human erythrocytes turned out to be 7560 ± 80 nM. Also, the IC50 was 20.7 ± 2.28 µM in the data set with MDA-MB-231 cells (Homo sapiens, MDA-MB-231); 36.8 ± 2.48 µM in “in vitro”; 38.9 ± 1.62 µM in the data set on T-47D cells (Homo sapiens, T47D); above 50 µM in the data set with MCF-7 cells (Homo sapiens, MCF7).

As to `CO[C@@H]1[C@@H](O)[C@H](O[C@@H]2[C@@H](O)[C@H](O[C@H]3[C@H](O)[C@@H](O[C@@H]4OC[C@@H](O)[C@H](O)[C@H]4O)[C@H](O[C@H]4[C@H](O[C@H]5CC[C@]6(C)C7CC[C@]8(C)[C@@H]([C@@](C)(O)[C@H](O)/C=C/C(C)(C)O)CC[C@@]8(C)C7=CC[C@H]6C5(C)C)OC[C@@H](OS(=O)(=O)O)[C@@H]4O)O[C@@H]3C)O[C@H](COS(=O)(=O)O)[C@H]2O)O[C@H](COS(=O)(=O)O)[C@H]1O` (stereo partly drawn) [Conicospermiumoside A7-2 (5), 3β-O-{6-O-sodium sulfate-3-O-methyl-β-D-glucopyranosyl-(1→3)-6-O-sodium sulfate-β-D-glucopyranosyl-(1→4)-[(1→2)-β-D-xylopyranosyl]-β-D-quinovopyranosyl-(1→2)-4-O-sodium sulfate-β-D-xylopyranosyl}-(20R,22R,25)-trihydroxylanosta-7,23-diene], in the data set on human erythrocytes, the HC50 is 20400 ± 360 nM. Besides, the IC50 with MDA-MB-231 cells (Homo sapiens, MDA-MB-231) was 49.9 ± 1.45 µM; in the data set “in vitro” it was above 50 µM; with T-47D cells (Homo sapiens, T47D), above 50 µM; with MCF-7 cells (Homo sapiens, MCF7), above 50 µM.

Turning to `CO[C@@H]1[C@@H](O)[C@H](O[C@@H]2[C@@H](O)[C@H](O[C@H]3[C@H](O)[C@@H](O[C@@H]4OC[C@@H](O)[C@H](O)[C@H]4O)[C@H](O[C@H]4[C@H](O[C@H]5CC[C@]6(C)C7CC[C@]8(C)[C@@H]([C@@](C)(O)[C@H](O)CC=C(C)C)CC[C@@]8(C)C7=CC[C@H]6C5(C)C)OC[C@@H](OS(=O)(=O)O)[C@@H]4O)O[C@@H]3C)O[C@H](COS(=O)(=O)O)[C@H]2O)O[C@H](COS(=O)(=O)O)[C@H]1O` (stereo partly shown) [Frondoside A7-4 (14), frondoside A7-4], the HC50 in the data set with human erythrocytes amounted to 2160 ± 60 nM. The IC50 was determined as 8.11 ± 0.74 µM in the data set on MDA-MB-231 cells (Homo sapiens, MDA-MB-231); 26.8 ± 0.94 µM in “in vitro”; 44.5 ± 2.18 µM with T-47D cells (Homo sapiens, T47D); 32.9 ± 2.13 µM with MCF-7 cells (Homo sapiens, MCF7).

As to `CO[C@@H]1[C@@H](O)[C@H](O[C@@H]2[C@@H](O)[C@H](O[C@H]3[C@H](O)[C@@H](O[C@@H]4OC[C@@H](O)[C@H](O)[C@H]4O)[C@H](O[C@H]4[C@H](OC5CC[C@]6(C)[C@H]7CCC89C(=O)O[C@@](C)(CCCC(C)C)C8[C@@H](OC(C)=O)C[C@@]9(C)C7=CC[C@H]6C5(C)C)OC[C@@H](OS(=O)(=O)O)[C@@H]4O)O[C@@H]3C)OC[C@H]2O)O[C@H](CO)[C@H]1O` (stereo partly shown) [Frondoside A (10), frondoside A], the HC50 in the data set on human erythrocytes was determined as 1220 ± 60 nM. Also, the IC50 was 2.79 ± 0.09 µM with MDA-MB-231 cells (Homo sapiens, MDA-MB-231); 11 ± 1.04 µM in “in vitro”; 9.76 ± 0.53 µM with T-47D cells (Homo sapiens, T47D); 19.4 ± 0.48 µM in the data set on MCF-7 cells (Homo sapiens, MCF7).

Regarding `COC1C(O)C(CO)OC(OC2C(O)COC(OC3C(C)OC(OC4C(OC5CCC6(C)C7CCC89C(=O)OC(C)(CC(=O)CC(C)C)C8C(OC(C)=O)CC9(C)C7=CCC6C5(C)C)OCC(OS(=O)(=O)O)C4O)C(O)C3O)C2O)C1O` (stereo not shown) [Okhotoside A1-1 (7), okhotoside A1-1], the HC50 in the data set on human erythrocytes amounted to 420 ± 20 nM. Further, the IC50 in the data set on MDA-MB-231 cells (Homo sapiens, MDA-MB-231) was 2.25 ± 0.17 µM; in the data set “in vitro”, 7.95 ± 0.44 µM; with T-47D cells (Homo sapiens, T47D), 6.23 ± 0.68 µM; with MCF-7 cells (Homo sapiens, MCF7) it was 10.9 ± 0.96 µM.

Take `C=C(C)CCC[C@]1(C)OC(=O)C23CC[C@H]4C(=CC[C@H]5C(C)(C)C(O[C@@H]6OC[C@@H](OS(=O)(=O)O)[C@H](O)[C@H]6O[C@@H]6O[C@H](CO)[C@@H](O[C@@H]7O[C@H](COS(=O)(=O)O)[C@@H](O)[C@H](O[C@@H]8O[C@H](CO)[C@@H](O)[C@H](OC)[C@H]8O)[C@H]7O)[C@H](O)[C@H]6O[C@@H]6OC[C@@H](O)[C@H](O)[C@H]6O)CC[C@]45C)[C@]2(C)C[C@H](OC(C)=O)C31` (stereo partly shown) [Okhotoside B2 (9), okhotoside B2]: the HC50 in the data set on human erythrocytes is 1360 ± 100 nM. For the same molecule, the IC50 in the data set on MDA-MB-231 cells (Homo sapiens, MDA-MB-231) was 4.25 ± 0.38 µM; in “in vitro”, 10.7 ± 0.21 µM; in the data set with T-47D cells (Homo sapiens, T47D), 11.1 ± 1.15 µM; in the data set with MCF-7 cells (Homo sapiens, MCF7) it was 39.8 ± 2.96 µM.

Turning to `N.N.[Cl][Pt][Cl]` [cisplatin, reference compound], the IC50 with MDA-MB-231 cells is at least 160 µM; with MCF-10A cells, 74.3 ± 2.19 µM; with T-47D cells, above 160 µM; in the data set on MCF-7 cells, 113 ± 2.45 µM.
